The text below walks through data of ChEMBL document CHEMBL4814041, “Anti-fibrotic effects of brevilin A in hepatic fibrosis via inhibiting the STAT3 signaling pathway” (Bioorg Med Chem Lett, 2021).

In brackets after ≈: the same amount, converted by molar mass. Activity calls are given as the source filed them. No cut-off for these calls is given here.

Experiment [1] has as its system LX-2. Description: Anti-fibrotic activity against human LX2 cells assessed as reduction in TGF-1beta-induced alpha-SMA mRNA expression at 0.25 to 1 ug/ml by qPCR analysis. Type of experiment: functional, cell-based. The settings on record: dose 0.25-1 µg/ml. For orientation: Quantitative PCR measures a nucleic acid by following its amplification.
Experiment [2] concerns LX-2. Description: Anti-fibrotic activity against human LX2 cells assessed as reduction in TGF-1beta-induced collagen mRNA expression at 0.25 to 1 ug/ml by qPCR analysis. The settings on record: dose 0.25-1 µg/ml. Type of experiment: functional, cell-based.
The test system of experiment [3] is LX-2. In words: Anti-fibrotic activity against human LX2 cells assessed as reduction in TGF-1beta-induced fibronectin mRNA expression at 0.25 to 1 ug/ml by qPCR analysis. Type of experiment: functional, cell-based. The settings on record: dose 0.25-1 µg/ml.
The target in experiment [4] is Signal transducer and activator of transcription 3 (Homo sapiens) (UniProt P40763). In words: Inhibition of STAT3 in human LX2 cells assessed as reduction in TGF-1beta-induced STAT3 phosphorylation at 0.25 to 1 ug/ml by Western blot analysis. Type of experiment: cell-based. The note with it: dose 0.25-1 µg/ml. A general note: A western blot detects proteins with antibodies after separation by electrophoresis.

The target is the same in experiment [5]. Description: Inhibition of STAT3 in human LX2 cells assessed as reduction in TGF-1beta-induced CTGF expression at 0.25 to 1 ug/ml by Western blot analysis. Type of experiment: cell-based. The note with it: dose 0.25-1 µg/ml.
Experiment [6] is described as follows: Anticancer activity against human nasopharyngeal carcinoma cells measured upto 72 hrs by MTT assay. Type of experiment: functional. The note with it: Nasopharyngeal carcinoma cell line.
Experiment [7] deals with Influenza A virus. In words: Antiviral activity against influenza A virus infected in MDCK cells assessed as reduction in plaque number measured after 48 to 72 hrs. It is filed as functional, organism-based.

Chain of Signal transducer and activator of transcription 3 (Homo sapiens) (P40763 whole entry): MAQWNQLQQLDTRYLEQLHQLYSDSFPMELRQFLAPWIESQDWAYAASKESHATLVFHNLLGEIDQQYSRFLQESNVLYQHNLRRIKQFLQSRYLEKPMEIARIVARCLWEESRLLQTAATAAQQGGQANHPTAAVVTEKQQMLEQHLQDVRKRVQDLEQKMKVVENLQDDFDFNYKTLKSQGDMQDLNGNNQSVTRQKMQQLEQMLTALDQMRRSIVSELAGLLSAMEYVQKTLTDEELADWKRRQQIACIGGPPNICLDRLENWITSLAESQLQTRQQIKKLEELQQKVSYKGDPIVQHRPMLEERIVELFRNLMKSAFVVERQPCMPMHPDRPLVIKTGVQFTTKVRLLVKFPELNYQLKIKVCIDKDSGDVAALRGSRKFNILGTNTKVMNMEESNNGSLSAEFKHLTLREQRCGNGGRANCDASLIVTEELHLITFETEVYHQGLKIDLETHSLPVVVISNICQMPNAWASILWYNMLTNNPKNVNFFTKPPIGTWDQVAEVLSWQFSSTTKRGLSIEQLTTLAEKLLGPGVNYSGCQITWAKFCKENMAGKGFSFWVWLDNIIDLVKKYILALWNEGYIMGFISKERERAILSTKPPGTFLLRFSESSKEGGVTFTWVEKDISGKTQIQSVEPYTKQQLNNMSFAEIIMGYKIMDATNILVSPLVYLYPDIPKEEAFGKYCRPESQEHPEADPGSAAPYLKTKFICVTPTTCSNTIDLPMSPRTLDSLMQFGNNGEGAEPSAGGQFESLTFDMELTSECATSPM

`C/C=C(/C)C(=O)O[C@H]1[C@@H]2[C@H](C)C(=O)O[C@@H]2C[C@@H](C)[C@@H]2C=CC(=O)[C@]21C` [BREVILIN A]: the result in experiment [1], in experiment [2] and in experiment [3] was Active. Besides, the inhibition entry in experiment [4] and in experiment [5] was “Active” each time. Moreover, the half-inhibitory concentration (IC50) in experiment [6] amounted to 3.46 µg/mL (≈ 9.99 µM). Besides, the EC50 in experiment [7] worked out at 1.02 µg/mL (≈ 2.94 µM).

By IC50 is commonly meant the concentration needed to halve the response being measured. A high value points to lower potency. For orientation: EC50 means the concentration giving half of the maximal effect.
